Source: the NIST ThermoML archive (doi:10.1021/je301301j)

Legend:
[1] = molar heat capacity at constant pressure; details: Liquid, Flow calorimetry
[2] = Liquid; for mass density: Vibrating tube method; for viscosity: Concentric cylinders viscometry
[3] = xn = mol fraction of the nth substance listed; details: 100 kPa, Liquid, Concentric cylinders viscometry, x1 = 1

C=CCCCC [hex-1-ene]
Details | mass density [kg/m3] | molar heat capacity at constant pressure [J/K/mol] | viscosity [mPa·s]
[1], 293.15 K, 100 kPa | – | 179.2 | –
[1], 293.15 K, 5000 kPa | – | 174.9 | –
[1], 293.15 K, 10000 kPa | – | 172.7 | –
[1], 293.15 K, 15000 kPa | – | 169.9 | –
[1], 293.15 K, 20000 kPa | – | 168.1 | –
[1], 293.15 K, 25000 kPa | – | 165.7 | –
[1], 313.15 K, 100 kPa | – | 188.8 | –
[1], 313.15 K, 5000 kPa | – | 185.9 | –
[1], 313.15 K, 10000 kPa | – | 183.1 | –
[1], 313.15 K, 15000 kPa | – | 181.6 | –
[1], 313.15 K, 20000 kPa | – | 179.6 | –
[1], 313.15 K, 25000 kPa | – | 177.2 | –
[2], 273.15 K, 100 kPa | 691.5 | – | –
[2], 273.15 K, 1000 kPa | 692.1 | – | –
[2], 273.15 K, 2000 kPa | 693 | – | –
[2], 273.15 K, 5000 kPa | 695.8 | – | –
[2], 273.15 K, 10000 kPa | 700 | – | –
[2], 273.15 K, 15000 kPa | 704 | – | –
[2], 273.15 K, 20000 kPa | 707.8 | – | –
[2], 273.15 K, 30000 kPa | 715 | – | –
[2], 273.15 K, 40000 kPa | 721.6 | – | –
[2], 273.15 K, 50000 kPa | 727.6 | – | –
[2], 273.15 K, 60000 kPa | 733.2 | – | –
[2], 273.15 K, 70000 kPa | 738.7 | – | –
[2], 293.15 K, 100 kPa | 672.8 | – | 0.28
[2], 293.15 K, 1000 kPa | 673.8 | – | –
[2], 293.15 K, 2000 kPa | 674.9 | – | –
[2], 293.15 K, 5000 kPa | 678 | – | –
[2], 293.15 K, 10000 kPa | 682.9 | – | –
[2], 293.15 K, 15000 kPa | 687.5 | – | –
[2], 293.15 K, 20000 kPa | 691.8 | – | –
[2], 293.15 K, 30000 kPa | 699.8 | – | –
[2], 293.15 K, 40000 kPa | 707 | – | –
[2], 293.15 K, 50000 kPa | 713.7 | – | –
[2], 293.15 K, 60000 kPa | 719.9 | – | –
[2], 293.15 K, 70000 kPa | 725.8 | – | –
[2], 303.15 K, 100 kPa | – | – | 0.257
[2], 313.15 K, 100 kPa | 653.8 | – | 0.236
[2], 313.15 K, 1000 kPa | 654.9 | – | –
[2], 313.15 K, 2000 kPa | 656.2 | – | –
[2], 313.15 K, 5000 kPa | 659.9 | – | –
[2], 313.15 K, 10000 kPa | 665.5 | – | –
[2], 313.15 K, 15000 kPa | 670.8 | – | –
[2], 313.15 K, 20000 kPa | 675.7 | – | –
[2], 313.15 K, 30000 kPa | 684.6 | – | –
[2], 313.15 K, 40000 kPa | 692.6 | – | –
[2], 313.15 K, 50000 kPa | 699.9 | – | –
[2], 313.15 K, 60000 kPa | 706.9 | – | –
[2], 313.15 K, 70000 kPa | 713 | – | –
[2], 333.15 K, 100 kPa | 634 | – | –
[2], 333.15 K, 1000 kPa | 635.4 | – | –
[2], 333.15 K, 2000 kPa | 636.9 | – | –
[2], 333.15 K, 5000 kPa | 641.3 | – | –
[2], 333.15 K, 10000 kPa | 647.8 | – | –
[2], 333.15 K, 15000 kPa | 653.9 | – | –
[2], 333.15 K, 20000 kPa | 659.5 | – | –
[2], 333.15 K, 30000 kPa | 669.5 | – | –
[2], 333.15 K, 40000 kPa | 678.4 | – | –
[2], 333.15 K, 50000 kPa | 686.3 | – | –
[2], 333.15 K, 60000 kPa | 693.7 | – | –
[2], 333.15 K, 70000 kPa | 700.5 | – | –

CCCCO [butan-1-ol] + C=CCCCC
[3]
Details | viscosity [mPa·s]
293.15 K | 2.953
303.15 K | 2.263
313.15 K | 1.769

CCCCO [butan-1-ol]
[2], 100 kPa
Details | viscosity [mPa·s]
293.15 K | 2.953
303.15 K | 2.263
313.15 K | 1.769
